The values below come from patent publication US20170198006A1, “PRMT5 INHIBITORS AND USES THEREOF” (Epizyme, Inc., priority 2014, published 2017).

T1 sequence (O14744 with tags, fused parts or gaps): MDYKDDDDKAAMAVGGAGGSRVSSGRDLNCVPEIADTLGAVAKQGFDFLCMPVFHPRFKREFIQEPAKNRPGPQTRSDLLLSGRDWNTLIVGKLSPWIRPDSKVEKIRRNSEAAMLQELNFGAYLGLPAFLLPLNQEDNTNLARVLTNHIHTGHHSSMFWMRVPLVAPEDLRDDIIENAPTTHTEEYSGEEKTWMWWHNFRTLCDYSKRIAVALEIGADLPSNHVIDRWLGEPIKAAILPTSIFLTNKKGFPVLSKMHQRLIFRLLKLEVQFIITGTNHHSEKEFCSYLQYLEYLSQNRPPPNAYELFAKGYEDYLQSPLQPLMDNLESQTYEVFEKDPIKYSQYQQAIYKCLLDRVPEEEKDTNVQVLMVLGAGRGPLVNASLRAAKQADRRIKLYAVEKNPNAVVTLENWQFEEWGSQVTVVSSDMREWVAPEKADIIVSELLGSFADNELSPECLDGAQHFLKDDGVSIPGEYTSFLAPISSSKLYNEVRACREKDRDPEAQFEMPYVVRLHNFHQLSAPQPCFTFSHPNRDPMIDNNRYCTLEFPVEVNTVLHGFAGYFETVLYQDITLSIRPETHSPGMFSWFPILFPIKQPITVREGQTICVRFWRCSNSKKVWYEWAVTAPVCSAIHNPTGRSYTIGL
T1 sequence (Q9BQA1 with tags, fused parts or gaps partner limits assumed): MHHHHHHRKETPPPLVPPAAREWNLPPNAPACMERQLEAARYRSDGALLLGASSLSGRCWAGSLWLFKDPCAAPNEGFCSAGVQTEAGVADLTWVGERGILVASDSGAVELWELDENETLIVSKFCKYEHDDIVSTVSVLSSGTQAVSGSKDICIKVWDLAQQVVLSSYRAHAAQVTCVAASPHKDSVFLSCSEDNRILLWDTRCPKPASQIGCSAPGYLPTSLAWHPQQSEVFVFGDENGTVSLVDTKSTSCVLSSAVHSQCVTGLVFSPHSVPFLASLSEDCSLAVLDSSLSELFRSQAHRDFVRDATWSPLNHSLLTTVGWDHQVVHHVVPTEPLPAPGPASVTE

The first experiment concerns the target T1, PRMT5/MEP50 (Homo sapiens, UniProt O14744).
T1 construct: Flag-PRMT5; made in house; host or cells: Spodoptera frugiperda (SF9), baculovirus
The experiment is described as follows: PRMT5 Biochemical Assay (PRMT5/MEP50 enzyme assay on histone H4 peptide substrate, 3H-SAM Flashplate).
Conditions: not given
The source says:
S-adenosylmethionine (SAM), S-adenosylhomocysteine (SAH), bicine, KCl, Tween20, dimethylsulfoxide (DMSO), bovine skin gelatin (BSG), and Tris(2-carboxyethyl)phosphine hydrochloride solution (TCEP) were purchased from Sigma-Aldrich at the highest level of purity possible. ^3H-SAM was purchase from American Radiolabeled Chemicals with a specific activity of 80 Ci/mmol. 384-well streptavidin Flashplates were purchased from PerkinElmer.
Peptide representative of human histone H4 residues 1-15 was synthesized with a C-terminal linker-affinity tag motif and a C-terminal amide cap by 21st Century Biochemicals.
The amplified genes were sublconed into pENTR/D/TEV (Life Technologies) and subsequently transferred by Gateway™ attL×attR recombination to pDEST8 baculvirus expression vector (Life Technologies).
Protein over-expression was accomplished by infecting exponentially growing Spodoptera frugiperda (SF9) cell culture at 1.2×10^6 cell/ml with a 5000 fold dilution of BIIC stock. Infections were carried out at 27° C. for 72 hours, harvested by centrifugation, and stored at −80° C. for purification.
Flag-PRMT5/6His-MeP50 was eluted with 300 mM Imidazole in the same buffer.
General Procedure for PRMT5/MEP50 Enzyme Assays on Peptide Substrates.
The assays were all performed in a buffer consisting of 20 mM Bicine (pH=7.6), 1 mM TCEP, 0.005% BSG, and 0.002% Tween20, prepared on the day of use. […] DMSO (1 ul) was added to Columns 11, 12, 23, 24, rows A-H for the maximum signal control and 1 ul of SAH, a known product and inhibitor of PRMT5/MEP50, was added to columns 11, 12, 23, 24, rows I-P for the minimum signal control. A cocktail (40 ul) containing the PRMT5/MEP50 enzyme and the peptide was added by Multidrop Combi (Thermo-Fisher). The compounds were allowed to incubate with PRMT5/MEP50 for 30 min at 25 degrees Celsius, then a cocktail (10 ul) containing ^3H-SAM was added to initiate the reaction (final volume=51 ul). […] The assays were stopped by the addition of non-radioactive SAM (10 ul) to a final concentration of 600 uM, which dilutes the ^3H-SAM to a level where its incorporation into the peptide substrate is no longer detectable. 50 ul of the reaction in the 384-well polypropylene plate was then transferred to a 384-well Flashplate and the biotinylated peptides were allowed to bind to the streptavidin surface for at least 1 hour before being washed three times with 0.1% Tween20 in a Biotek ELx405 plate washer. The plates were then read in a PerkinElmer TopCount plate reader to measure the quantity of ^3H-labeled peptide bound to the Flashplate surface, measured as disintegrations per minute (dpm) or alternatively, referred to as counts per minute (cpm).
Where dpm=disintegrations per minute, cmpd=signal in assay well, and min and max are the respective minimum and maximum signal controls.
Where top and bottom are the normally allowed to float, but may be fixed at 100 or 0 respectively in a 3-parameter fit. The Hill Coefficient normally allowed to float but may also be fixed at 1 in a 3-parameter fit. Y is the % inhibition and X is the compound concentration.
The IC50 is the concentration that gives 50% inhibition. As to `O=C(CC1NC(N2CCN(Cc3ccccc3)CC2)=NC1=O)Nc1ccccc1` (stereo not drawn) [Compound 6-14], the IC50 fell in the range of 10000 to 50000 nM.

Still in this experiment, the particulars now being: PRMT5 biochemical assay; read-out: Biochemical IC50.
`CN(CCN)C[C@H]1O[C@@H](n2cnc3c(N)ncnc32)[C@H](O)[C@@H]1O` [Compound 27-1]: the IC50 lay in the range of 101 to 1000 nM.
On the same count and under the same terms, under `CC(C)N(CCN)C[C@H]1O[C@@H](n2cnc3c(N)ncnc32)[C@H](O)[C@@H]1O` [Compound 26-1] stands 101 to 1000 nM; under `NCc1nc(CCNC(=O)c2ccccc2)cn1Cc1ccccc1` [Compound 2-2, N-(2-(2-(aminomethyl)-1-benzyl-1H-imidazol-4-yl)ethyl)benzamide], 101 to 1000 nM.
Same read-out and setting: under `N=C(NC[C@H]1O[C@@H](n2cnc3c(N)ncnc32)[C@H](O)[C@@H]1O)c1ccccc1` [Compound 83-1] stands 101 to 1000 nM; under `COc1ccccc1C(=O)CC1NC(N2CCN(c3ccccc3)CC2)=NC1=O` (stereo not drawn) [Compound 3-6], 101 to 1000 nM.
Regarding `CN(CCNc1ccccc1)CC1O[C@@H](n2cnc3c(N)ncnc32)[C@H](O)[C@@H]1O` (stereo partly drawn) [Compound 57-1], the IC50 was under 100 nM.
The same measure, in the same setting: next, `Nc1ncnc2c1ncn2[C@@H]1O[C@H](CSCCCC(=O)O)[C@@H](O)[C@H]1O` [Compound 95-1]: 101 to 1000 nM; `CCOC(=O)c1ccc(NC(=O)CC2NC(N3CCN(c4ccccn4)CC3)=NC2=O)cc1` (stereo not drawn) [Compound 17-14]: 1000 to 10000 nM; `CN(CCNCCc1ccc(O)cc1)C[C@H]1O[C@@H](n2cnc3c(N)ncnc32)[C@H](O)[C@@H]1O` [Compound 70-1]: under 100 nM.
In the case of `COc1ccc(N2CCN(C3=NC(=O)C(CC(=O)Nc4ccc(C(C)=O)cc4)N3)CC2)cc1` (stereo not drawn) [Compound 21-14], the IC50 lay within 1000 to 10000 nM.
Same read-out and setting: next, `NCCN(CCCCC(=O)O)C[C@H]1O[C@@H](n2cnc3c(N)ncnc32)[C@H](O)[C@@H]1O` [Compound 34-1]: under 100 nM; `O=C1c2ccccc2C(=O)N1CCCSC[C@H]1C[C@@H](n2ccc3cncnc32)[C@H](O)[C@@H]1O` [Compound 93-1]: 101 to 1000 nM; `NCc1ncc(CCNC(=O)c2ccccc2)n1Cc1ccccc1` [Compound 7-13]: 10000 to 50000 nM.
For `COc1ccc(NC(=O)CC2NC(N3CCN(c4ccccc4)CC3)=NC2=O)cc1` (stereo not drawn) [Compound 62-14], the IC50 was 1000 to 10000 nM.
On to `CN(CCNCCc1ccccc1Cl)C[C@H]1O[C@@H](n2cnc3c(N)ncnc32)[C@H](O)[C@@H]1O` [Compound 60-1], for which the IC50 was under 100 nM.
Consider `CN(CCNC1CCC(C(C)(C)C)CC1)C[C@H]1O[C@@H](n2cnc3c(N)ncnc32)[C@H](O)[C@@H]1O` (stereo partly drawn) [Compound 71-1], for which the half-inhibitory concentration (IC50) lay within 101 to 1000 nM.
Consider `CN1CCN(C2=NC(=O)C(CC(=O)Nc3ccc(Cl)cc3)N2)CC1` (stereo not drawn) [Compound 2-14], for which the IC50 lay in the range of 1000 to 10000 nM.
On the same count and under the same terms, next, `O=C(CC1NC(N2CCN(c3ccccc3)CC2)=NC1=O)Nc1cccc(Cl)c1` (stereo not drawn) [Compound 50-14]: 1000 to 10000 nM; `O=C(CC1NC(N2CCN(c3ccccc3)CC2)=NC1=O)c1ccccc1Cl` (stereo not drawn) [Compound 2-6]: 101 to 1000 nM.
Same read-out and setting: next, `O=C(CC1NC(N2CCN(c3ccccc3)CC2)=NC1=O)c1cccc(Cl)c1` (stereo not drawn) [Compound 47-14]: 101 to 1000 nM.
Still for that read-out and setting: next, `CN1CCC(N(C)C[C@H]2O[C@@H](n3cnc4c(N)ncnc43)[C@H](O)[C@@H]2O)C1` (stereo partly drawn) [Compound 85-1]: 101 to 1000 nM; `COc1ccc(NC(=O)CC2NC(N3CCN(c4ccccn4)CC3)=NC2=O)cc1` (stereo not drawn) [Compound 7-14]: 1000 to 10000 nM; `CCN1CCN(C2=NC(=O)C(CC(=O)Nc3ccc(C(C)=O)cc3)N2)CC1` (stereo not drawn) [Compound 14-14]: 1000 to 10000 nM.
For the molecule `Cc1ccc(NC(=O)CC2NC(N3CCN(C)CC3)=NC2=O)cc1` (stereo not drawn) [Compound 4-14], the IC50 fell in the range of 10000 to 50000 nM.
The same measure, in the same setting: next, `Nc1ncnc2c1ncn2[C@@H]1O[C@H](CN(CCCC(=O)O)CCNCCc2ccc(Cl)cc2)[C@@H](O)[C@H]1O` [Compound 80-1]: under 100 nM.
In the case of `CSC[C@H]1O[C@@H](n2cnc3c(N)ncnc32)[C@H](O)[C@@H]1O` [Compound 96-1], the IC50 fell in the range of 101 to 1000 nM.
In the case of `CN(CCNC1CCCC1)C[C@H]1O[C@@H](n2cnc3c(N)ncnc32)[C@H](O)[C@@H]1O` [Compound 65-1], the half-maximal inhibitory concentration (IC50) lay in the range of 101 to 1000 nM.
As for `Cc1ccc(NC(=O)CC2NC(N3CCN(c4ccccc4)CC3)=NC2=O)cc1` (stereo not drawn) [Compound 67-14], the IC50 lay within 1000 to 10000 nM.
On the same count and under the same terms, under `CCCCOC(=O)c1ccc(NC(=O)NCCNC[C@H]2O[C@@H](n3cnc4c(N)ncnc43)[C@H](O)[C@@H]2O)cc1` [Compound 75-1] stands under 100 nM.
Consider `CN(CCNCCOc1ccccc1)C[C@H]1O[C@@H](n2cnc3c(N)ncnc32)[C@H](O)[C@@H]1O` [Compound 63-1], for which the IC50 was under 100 nM.
The same measure, in the same setting: under `O=C(CC1NC(N2CCN(c3ccccc3)CC2)=NC1=O)Nc1ccc(Br)cc1` (stereo not drawn) [Compound 4-6] stands 101 to 1000 nM.
Consider `CN(CCNc1ccccn1)C[C@H]1O[C@@H](n2cnc3c(N)ncnc32)[C@H](O)[C@@H]1O` [Compound 56-1], for which the IC50 was in the range of 101 to 1000 nM.
Same read-out and setting: next, `CN(CCN(CCc1ccc(Cl)cc1)Cc1ccccc1)C[C@H]1O[C@@H](n2cnc3c(N)ncnc32)[C@H](O)[C@@H]1O` [Compound 51-1]: 101 to 1000 nM; `Nc1ncnc2c1ncn2[C@@H]1O[C@H](CN(CCNCCc2ccc(Cl)cc2)Cc2ccccc2)[C@@H](O)[C@H]1O` [Compound 81-1]: under 100 nM.
Take `COc1ccccc1NC(=O)CC1NC(N2CCN(c3ccccc3)CC2)=NC1=O` (stereo not drawn) [Compound 60-14]: the IC50 lay in the range of 10000 to 50000 nM.
On the same count and under the same terms, under `COc1cccc([C@H](C)NCCN(C)C[C@H]2O[C@@H](n3cnc4c(N)ncnc43)[C@H](O)[C@@H]2O)c1` [Compound 2-1] stands 101 to 1000 nM; under `Cc1ccc(C(=O)CC2NC(N3Cc4ccccc4C3)=NC2=O)cc1` (stereo not drawn) [Compound 36-14], 1000 to 10000 nM; under `Cc1ccc(C(C)NCCN(C)C[C@H]2O[C@@H](n3cnc4c(N)ncnc43)[C@H](O)[C@@H]2O)cc1` (stereo partly drawn) [Compound 3-1], 101 to 1000 nM.
On the same count and under the same terms, under `CCC(COC)NCCN(C)C[C@H]1O[C@@H](n2cnc3c(N)ncnc32)[C@H](O)[C@@H]1O` (stereo partly drawn) [Compound 62-1] stands 101 to 1000 nM.
In the case of `CCCCNCCN(C)C[C@H]1O[C@@H](n2cnc3c(N)ncnc32)[C@H](O)[C@@H]1O` [Compound 68-1], the IC50 was under 100 nM.
Take `Nc1ncnc2c1ncn2[C@@H]1O[C@H](CN2CCCN(c3ccccn3)CC2)[C@@H](O)[C@H]1O` [Compound 84-1]: the IC50 was 101 to 1000 nM.
Still for that read-out and setting: under `COc1cc(Cl)ccc1NC(=O)CC1NC(N2CCN(c3ccccc3)CC2)=NC1=O` (stereo not drawn) [Compound 63-14] stands 101 to 1000 nM; under `CN(CCNC1CCCCC1)C[C@H]1O[C@@H](n2cnc3c(N)ncnc32)[C@H](O)[C@@H]1O` [Compound 54-1], under 100 nM; under `CCN(CCNCCc1ccc(Cl)cc1)C[C@H]1O[C@@H](n2cnc3c(N)ncnc32)[C@H](O)[C@@H]1O` [Compound 82-1], 101 to 1000 nM.
Still for that read-out and setting: under `O=C(CC1NC(N2CCN(c3ccccc3)CC2)=NC1=O)NCC1CCCCC1` (stereo not drawn) [Compound 53-14] stands 1000 to 10000 nM.
Still for that read-out and setting: next, `O=C(CC1NC(N2CCN(c3ccccc3)CC2)=NC1=O)c1ccccc1Br` (stereo not drawn) [Compound 75-14]: 101 to 1000 nM.
For `CC(=O)Nc1ccc(NC(=O)CC2NC(N3CCN(c4ccccc4)CC3)=NC2=O)cc1` (stereo not drawn) [Compound 10-14], the half-maximal inhibitory concentration (IC50) lay in the range of 10000 to 50000 nM.
Still for that read-out and setting: next, `CC1CCN(CCN(C)C[C@H]2O[C@@H](n3cnc4c(N)ncnc43)[C@H](O)[C@@H]2O)CC1` [Compound 44-1]: 101 to 1000 nM.
Turning to `Cc1ccc(C(=O)CC2NC(N3CCN(Cc4ccc(F)cc4)CC3)=NC2=O)cc1` (stereo not drawn) [Compound 35-14], the IC50 fell in the range of 1000 to 10000 nM.
For the molecule `Cc1ccc(C(=O)CC2NC(N3CCN(c4ccc(F)cc4)CC3)=NC2=O)cc1` (stereo not drawn) [Compound 32-14], the IC50 fell in the range of 1000 to 10000 nM.
Same read-out and setting: under `COc1cccc(NC(=O)CC2NC(N3CCN(c4ccccc4)CC3)=NC2=O)c1` (stereo not drawn) [Compound 61-14] stands 10000 to 50000 nM; under `Nc1ncnc2c1ncn2[C@@H]1O[C@H](CNCCNCCc2ccc(Cl)cc2)[C@@H](O)[C@H]1O` [Compound 74-1], under 100 nM; under `NCCCN(CCN)C[C@H]1O[C@@H](n2cnc3c(N)ncnc32)[C@H](O)[C@@H]1O` [Compound 30-1], under 100 nM.
